Each structure is given as a SMILES string. Where only a bound is given, the exact number is not on record here.

Experimental findings from patent publication US10906876B2, “Tetrahydroisoquinolines as selective NADPH oxidase 2 inhibitors” (University of Pittsburgh—Of the Commonwealth System of …, priority 2013, dated 2021) are described below.

One assay deals with T1, Nox4 (Homo sapiens, UniProt Q9NPH5).
T1 construct: Plasmids encoding full-length human cDNAs for Nox1 (pcDNA3.1-hNox1), NOXO1 (pcDNA3.1-hNOXO1), NOXA1 (pCMVsport 6-hNOXA1), p47phox (pCMV-Tag4A-hp47) and Nox4 (pcDNA3-hNox4); expressed in transfected cells; host or cells: COS-22 (COS-7 stably expressing human p22phox), transient transfection with pcDNA3.1/Hygro-hNox4
T1 sequence (Q9NPH5 1-578): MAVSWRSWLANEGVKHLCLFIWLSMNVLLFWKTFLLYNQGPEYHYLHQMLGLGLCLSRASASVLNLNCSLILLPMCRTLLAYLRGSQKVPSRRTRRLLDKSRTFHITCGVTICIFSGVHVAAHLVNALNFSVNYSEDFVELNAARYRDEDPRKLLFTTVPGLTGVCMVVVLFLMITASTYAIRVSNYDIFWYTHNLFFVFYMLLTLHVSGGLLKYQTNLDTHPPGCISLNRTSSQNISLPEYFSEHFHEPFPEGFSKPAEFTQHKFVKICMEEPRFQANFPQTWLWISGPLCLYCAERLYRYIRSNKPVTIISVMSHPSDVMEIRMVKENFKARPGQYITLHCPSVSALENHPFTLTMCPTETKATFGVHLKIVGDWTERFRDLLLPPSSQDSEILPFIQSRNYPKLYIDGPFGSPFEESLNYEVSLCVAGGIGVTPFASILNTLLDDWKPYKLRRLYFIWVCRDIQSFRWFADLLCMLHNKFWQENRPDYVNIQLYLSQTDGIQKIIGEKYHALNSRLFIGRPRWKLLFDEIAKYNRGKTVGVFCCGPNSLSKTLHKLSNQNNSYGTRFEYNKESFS
T1 sequence (P13498 2-195 partner limits assumed): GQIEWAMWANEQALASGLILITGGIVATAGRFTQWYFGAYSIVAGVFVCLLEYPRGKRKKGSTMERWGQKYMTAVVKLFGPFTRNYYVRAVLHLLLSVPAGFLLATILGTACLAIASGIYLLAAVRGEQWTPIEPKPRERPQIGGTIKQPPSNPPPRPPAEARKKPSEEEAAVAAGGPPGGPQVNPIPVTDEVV
The experiment in a line: Constitutive Nox4 activity in transiently transfected COS-Nox4 cells, Amplex Red assay. Format: cell-based. To be noted: COS-Nox4 cells. From the text: Plasmids encoding full-length human cDNAs for Nox1 (pcDNA3.1-hNox1), NOXO1 (pcDNA3.1-hNOXO1), NOXA1 (pCMVsport 6-hNOXA1), p47phox (pCMV-Tag4A-hp47) and Nox4 (pcDNA3-hNox4) were kindly provided by Dr. David Lambeth (Emory University, Ga.). Plasmids encoding Nox1, NOXO1, or NOXA1 were transformed and amplified into Escherichia coli strain TOP10 (Invitrogen, Carlsbad, Calif.). Plasmids were purified using a QIAfilter plasmid purification kit (QIAGEN Inc., Valencia, Calif.). For human Nox4 expression, the BglII/NotI restriction fragment from the pcDNA3-hNox4 was subcloned into the plasmid pcDNA3.1/Hygro(−) (Invitrogen, Carlsbad, Calif.) to generate pcDNA3.1/Hygro-hNox4. The fragment sequence, in-frame insertion and orientation were validated by DNA sequencing after PCR amplification. pcDNA3.1/Hygro-hNox4 was amplified into Escherichia coli strain TOP10 and purified with a QIAfilter plasmid purification kit.
Cell transfection was carried out using Lipofectamine LTX and Plus reagent (Invitrogen, Carlsbad, Calif., USA), according to the manufacturer's instructions. COS-22 cells were transiently co-transfected with pcDNA 3.1-hNox1, pCMVsport 6-hNOXA1 and pcDNA3.1-hNoxO1 (COS-Nox1/NOXO1/NOXA1 cells) or with pcDNA3.1/Hygro-hNox4 (COS-Nox4 cells). Cells were used 24 hr after transfection. Adherent cells were harvested by incubating with 0.05% trypsin/EDTA for 5 min at 37° C. Following addition of DMEM/10% FBS to neutralize the trypsin, the cells were pelleted by centrifugation at 1100×g for 5 min at 4° C. and used for the experiments.
H2O2 production was quantified in intact COS-Nox4 cells by Amplex® Red. Briefly, COS-Nox4 cells (5×10^4 cells/ml) were re-plated into 384-well plate in assay buffer (25 mM Hepes, pH 7.4, containing 0.12 M NaCl, 3 mM KCl, 1 mM MgCl2). The cells were incubated in the presence or absence of drugs at 37° C. in assay buffer supplemented with 0.1 mM Amplex® Red, and 0.32 U/ml of horse radish peroxidase (HRP) for 15 min. Fluorescence measurements were made using a Biotek Synergy 4 Hybrid Multi-Mode Microplate Reader with a 530/25-excitation and a 590/35-emission filter. The reaction was monitored at 37° C. for 1 h. A standard curve of known H2O2 concentrations was included on each plate. Nox4 activity was obtained by calculating the rate of H2O2 production as RFU/min and then subtracting the equivalent value given by non-transfected COS-22 cells. Similarly, H2O2 production by Nox2 cells was also measured by Amplex® Red as described above but in the presence of 150 U/mL of SOD and the reaction was initiated by addition of 5 μM PMA. The rate of H2O2 production in this case was calculated as RFU/min after the subtraction of the equivalent value given by non-stimulated cells. Data are expressed as % of vehicle control.
All data are expressed as means±SEM. IC50 values were determined using the GraphPad Prism software (GraphPad Software, San Diego, Calif.) for non-linear regression three-parameters, with constrain values of 100 and 0 for top and bottom, respectively, and assumes a Hill slope of 1.
For the molecule `C=C(C)CC1C2c3c(Br)cccc3C(CC2(C)C)N1Cc1cccs1` (racemic) [Compound 11h, (±)-(1S,4R,9S)-5-Bromo-3,3-dimethyl-9-(2-methylallyl)-10-(thiophen-2-ylmethyl)-1,2,3,4-tetrahydro-1,4-(epiminomethano)naphthalene], the “Nox4 inhibitory activity” value is given as “virtually no effect”.
Still for that read-out and setting: the value for `C=C(C)CC1NC2CC(C)(C)C1c1c(Br)cccc12` (racemic) [Compound 7, (±)-(1S,4R,9S)-5-Bromo-3,3-dimethyl-9-(2-methylallyl)-1,2,3,4-tetrahydro-1,4-(epimino-methano)-naphthalene] was “inactive”.
On the same count and under the same terms, then `C=C(C)CC1NC2CC(C)(C)C1c1ccccc12` (racemic) [Compound 8, (±)-(1S,4R,9S)-3,3-Dimethyl-9-(2-methylallyl)-1,2,3,4-tetrahydro-1,4-(epiminomethano)-naphthalene], with “inactive”; and `C=C(C)CC1C2c3c(Br)cccc3C(CC2(C)C)N1CCCCC` (racemic) [Compound 11g, (±)-(1S,4R,9S)-5-Bromo-3,3-dimethyl-9-(2-methylallyl-10-pentyl-1,2,3,4-tetrahydro-1,4-(epiminomethano)naphthalene], with “virtually no effect”.

The assay is the same for the next values; noted with them: constitutive activity, transiently transfected COS-Nox4 cells, read-out: IC50 of ROS generation, Nox4 (Amplex Red assay).
On to `C=C(C)CC1C2c3c(Br)cccc3C(CC2(C)C)N1Cc1cccc(F)c1` (racemic) [Compound 11f, (±)-(1S,4R,9S)-5-Bromo-10-(3-fluorobenzyl)-3,3-dimethyl-9-(2-methylallyl)-1,2,3,4-tetrahydro-1,4-(epiminomethano)naphthalene], for which the IC50 is more than 100 µM.
The same measure, in the same setting: then `C=C(C)CC1C2c3c(-c4ccc(Cl)c(Cl)c4)cccc3C(CC2(C)C)N1CCCCC` (racemic) [Compound 12c], with more than 100 µM.
Still for that read-out and setting: then `C=C(C)CC1C2c3c(Br)cccc3C(CC2(C)C)N1S(C)(=O)=O` (racemic) [Compound 14a, (±)-(1S,4R,9S)-5-Bromo-3,3-dimethyl-9-(2-methylallyl)-10-(methylsulfonyl)-1,2,3,4-tetrahydro-1,4-(epiminomethano)naphthalene], with more than 100 µM; and `CC(C)CC1NC2CC(C)(C)C1c1c(Br)cccc12` (racemic) [Compound 13], with more than 100 µM.
For the molecule `C=C(C)CC1NC2CC(C)(C)C1c1c(-c3ccc(Cl)c(Cl)c3)cccc12` (racemic) [Compound 12a, (±)-(1S,4R,9S)-5-(3,4-Dichlorophenyl)-3,3-dimethyl-9-(2-methylallyl)-1,2,3,4-tetrahydro-1,4-(epiminomethano)naphthalene], the IC50 was more than 100 µM.
For the molecule `C=C(C)CC1C2c3c(Br)cccc3C(CC2(C)C)N1Cc1ccc2c(c1)OCO2` (racemic) [Compound 11d, (±)-(1S,4R,9S)-10-(Benzo[d][1,3]dioxol-5-ylmethyl)-5-bromo-3,3-dimethyl-9-(2-methylallyl)-1,2,3,4-tetrahydro-1,4-(epiminomethano)naphthalene], the IC50 was more than 100 µM.
On the same count and under the same terms, then `C=C(C)CC1NC2CC(C)(C)C1c1c(Br)cccc12` (racemic) [Compound 7, (±)-(1S,4R,9S)-5-Bromo-3,3-dimethyl-9-(2-methylallyl)-1,2,3,4-tetrahydro-1,4-(epimino-methano)-naphthalene], with more than 100 µM; and `C=C(C)CC1C2c3c(Br)cccc3C(CC2(C)C)N1Cc1cc(C)on1` (racemic) [Compound 11e, (±)-3-(1S,4R,9S)-5-Bromo-3,3-dimethyl-9-(2-methylallyl)-1,2,3,4-tetrahydro-1,4-(epimino-methano) naphthalen-10-yl)methyl)-5-methylisoxazole], with more than 100 µM.
The same measure, in the same setting: the value for `C=C(C)CC1C2c3c(Br)cccc3C(CC2(C)C)N1CCCCC` (racemic) [Compound 11g, (±)-(1S,4R,9S)-5-Bromo-3,3-dimethyl-9-(2-methylallyl-10-pentyl-1,2,3,4-tetrahydro-1,4-(epiminomethano)naphthalene] was more than 100 µM.
Same read-out and setting: then `C=C(C)CC1C2c3ccccc3C(CC2(C)C)N1Cc1cccc(F)c1` (racemic) [Compound 11a, (±)-(1S,4R,9S)-10-(3-Fluorobenzyl)-3,3-dimethyl-9-(2-methylallyl)-1,2,3,4-tetrahydro-1,4-(epiminomethano)naphthalene], with more than 100 µM.
